How the values were obtained:
[1] = target: PI3K δ (Homo sapiens, UniProt O00329); assay: PI3K lipid kinase inhibition assay (TLC or HTRF), PI3K δ; type: biochemical; set-up: purchased Upstate; conditions: In Vitro
Description: (§1) Other commercial kits or systems for assaying PI3K activities are available. […] An exemplary system is PI 3-Kinase (human) HTRF™ Assay from Upstate.

[2] = target: T1, PI3K α (Homo sapiens, UniProt P42336); assay: PI3K lipid kinase inhibition assay (TLC or HTRF), PI3K α; type: biochemical; conditions: In Vitro
T1 construct: purchased Upstate
Description: as §1

[3] = target: T2, PI3K γ (Homo sapiens, UniProt P48736); assay: PI3K lipid kinase inhibition assay (TLC or HTRF), PI3K γ; type: biochemical; conditions: In Vitro
T2 construct: purchased Sigma
Description: as §1

[4] = target: T3, PI3K β (Homo sapiens, UniProt P42338); assay: PI3K lipid kinase inhibition assay (TLC or HTRF), PI3K β; type: biochemical; conditions: In Vitro
T3 construct: purchased Upstate
Description: as §1

[5] = system: MJ; assay: CTCL cytotoxicity, 72 hours; type: cell-based; conditions: MJ cells
Procedure: MJ and HuT78 cells were grown in IMDM 20% FBS, and HH cells were grown in RPMI 10% FBS.

[6] = system: Loucy; assay: T-ALL growth inhibition; type: cell-based, human; conditions: Loucy ALL cells, various concentrations
Procedure: To further explore the individual contributions of the varying PI3K isoforms on T-ALL cell growth, Loucy ALL cells were treated with doxorubicin and various PI3K inhibitors as shown in FIG. 32 at various concentrations as denoted in the figure.

T1 sequence (P42336 whole entry): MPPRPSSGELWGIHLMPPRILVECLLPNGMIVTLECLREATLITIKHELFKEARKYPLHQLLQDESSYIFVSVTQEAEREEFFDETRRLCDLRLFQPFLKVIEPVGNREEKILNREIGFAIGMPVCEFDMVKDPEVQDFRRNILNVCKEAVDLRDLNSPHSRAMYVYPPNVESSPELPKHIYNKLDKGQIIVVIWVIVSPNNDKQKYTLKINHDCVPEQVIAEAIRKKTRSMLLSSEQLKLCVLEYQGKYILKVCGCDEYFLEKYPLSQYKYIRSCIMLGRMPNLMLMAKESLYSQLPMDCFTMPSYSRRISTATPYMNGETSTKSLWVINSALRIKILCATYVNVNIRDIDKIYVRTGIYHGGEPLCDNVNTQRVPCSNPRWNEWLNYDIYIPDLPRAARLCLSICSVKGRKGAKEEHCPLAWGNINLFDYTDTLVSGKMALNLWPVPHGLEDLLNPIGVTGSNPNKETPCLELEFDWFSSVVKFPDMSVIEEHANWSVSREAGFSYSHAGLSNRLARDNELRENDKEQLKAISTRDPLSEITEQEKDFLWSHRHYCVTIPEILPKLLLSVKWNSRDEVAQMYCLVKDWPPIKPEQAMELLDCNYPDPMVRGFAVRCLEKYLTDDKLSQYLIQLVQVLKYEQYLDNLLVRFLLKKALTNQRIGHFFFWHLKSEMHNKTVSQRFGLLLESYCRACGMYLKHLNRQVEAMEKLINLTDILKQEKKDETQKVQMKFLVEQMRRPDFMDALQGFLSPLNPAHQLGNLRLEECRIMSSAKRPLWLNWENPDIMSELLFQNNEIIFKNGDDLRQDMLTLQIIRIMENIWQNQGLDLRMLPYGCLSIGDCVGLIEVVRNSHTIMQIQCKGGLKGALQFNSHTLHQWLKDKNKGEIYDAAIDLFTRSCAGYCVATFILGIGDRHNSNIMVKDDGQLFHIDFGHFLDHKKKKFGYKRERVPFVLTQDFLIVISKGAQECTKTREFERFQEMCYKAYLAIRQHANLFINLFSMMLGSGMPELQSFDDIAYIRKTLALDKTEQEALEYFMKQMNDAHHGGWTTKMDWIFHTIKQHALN
T1 sequence (P27986 whole entry partner): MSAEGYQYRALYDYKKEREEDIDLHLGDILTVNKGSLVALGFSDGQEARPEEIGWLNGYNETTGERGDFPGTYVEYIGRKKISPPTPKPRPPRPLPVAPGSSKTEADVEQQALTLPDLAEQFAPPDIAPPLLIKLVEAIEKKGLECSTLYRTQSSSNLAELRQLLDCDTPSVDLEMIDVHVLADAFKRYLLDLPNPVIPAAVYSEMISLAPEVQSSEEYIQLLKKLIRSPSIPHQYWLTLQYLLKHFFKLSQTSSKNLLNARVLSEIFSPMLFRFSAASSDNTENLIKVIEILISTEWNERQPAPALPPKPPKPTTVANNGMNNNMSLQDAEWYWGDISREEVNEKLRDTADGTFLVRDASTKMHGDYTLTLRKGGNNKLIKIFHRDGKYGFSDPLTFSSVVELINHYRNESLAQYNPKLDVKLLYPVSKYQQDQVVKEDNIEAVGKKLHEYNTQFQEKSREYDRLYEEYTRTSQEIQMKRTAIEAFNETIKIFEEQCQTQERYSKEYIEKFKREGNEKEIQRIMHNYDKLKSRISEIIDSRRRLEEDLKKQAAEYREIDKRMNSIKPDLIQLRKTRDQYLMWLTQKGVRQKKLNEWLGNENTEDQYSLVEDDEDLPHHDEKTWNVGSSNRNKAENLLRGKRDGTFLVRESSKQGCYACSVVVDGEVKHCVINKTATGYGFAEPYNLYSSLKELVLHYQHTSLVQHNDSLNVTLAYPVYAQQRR
Sequence of PI3K δ (O00329 whole entry): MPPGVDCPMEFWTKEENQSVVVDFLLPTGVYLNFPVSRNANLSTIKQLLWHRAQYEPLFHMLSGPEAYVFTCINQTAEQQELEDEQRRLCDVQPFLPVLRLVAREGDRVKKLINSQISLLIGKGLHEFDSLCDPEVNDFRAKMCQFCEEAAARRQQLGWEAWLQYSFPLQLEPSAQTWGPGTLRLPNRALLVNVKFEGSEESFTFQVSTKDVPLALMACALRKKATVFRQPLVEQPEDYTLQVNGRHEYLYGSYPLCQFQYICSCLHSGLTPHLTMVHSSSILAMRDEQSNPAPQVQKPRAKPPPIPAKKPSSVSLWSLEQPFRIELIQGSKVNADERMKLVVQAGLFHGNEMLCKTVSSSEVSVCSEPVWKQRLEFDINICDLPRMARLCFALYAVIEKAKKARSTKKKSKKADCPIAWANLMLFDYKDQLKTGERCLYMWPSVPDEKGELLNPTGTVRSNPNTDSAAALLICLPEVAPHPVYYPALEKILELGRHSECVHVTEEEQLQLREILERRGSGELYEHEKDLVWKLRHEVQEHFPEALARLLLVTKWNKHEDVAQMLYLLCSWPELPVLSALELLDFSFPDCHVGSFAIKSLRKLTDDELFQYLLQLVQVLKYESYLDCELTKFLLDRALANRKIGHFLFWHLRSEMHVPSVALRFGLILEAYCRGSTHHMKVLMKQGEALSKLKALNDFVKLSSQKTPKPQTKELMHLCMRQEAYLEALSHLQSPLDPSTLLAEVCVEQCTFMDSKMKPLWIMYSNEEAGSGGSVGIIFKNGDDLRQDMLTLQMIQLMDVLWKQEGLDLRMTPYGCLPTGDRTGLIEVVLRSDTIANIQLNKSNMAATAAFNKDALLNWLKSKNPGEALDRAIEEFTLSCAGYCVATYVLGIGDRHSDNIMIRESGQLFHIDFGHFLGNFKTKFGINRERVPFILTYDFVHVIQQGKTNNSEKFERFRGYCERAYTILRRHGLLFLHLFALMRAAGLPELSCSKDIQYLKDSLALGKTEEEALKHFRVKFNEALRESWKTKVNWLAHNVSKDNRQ
Sequence of PI3K δ (P27986 whole entry partner): as the sequence (P27986 whole entry partner) above
T2 sequence (P48736 whole entry): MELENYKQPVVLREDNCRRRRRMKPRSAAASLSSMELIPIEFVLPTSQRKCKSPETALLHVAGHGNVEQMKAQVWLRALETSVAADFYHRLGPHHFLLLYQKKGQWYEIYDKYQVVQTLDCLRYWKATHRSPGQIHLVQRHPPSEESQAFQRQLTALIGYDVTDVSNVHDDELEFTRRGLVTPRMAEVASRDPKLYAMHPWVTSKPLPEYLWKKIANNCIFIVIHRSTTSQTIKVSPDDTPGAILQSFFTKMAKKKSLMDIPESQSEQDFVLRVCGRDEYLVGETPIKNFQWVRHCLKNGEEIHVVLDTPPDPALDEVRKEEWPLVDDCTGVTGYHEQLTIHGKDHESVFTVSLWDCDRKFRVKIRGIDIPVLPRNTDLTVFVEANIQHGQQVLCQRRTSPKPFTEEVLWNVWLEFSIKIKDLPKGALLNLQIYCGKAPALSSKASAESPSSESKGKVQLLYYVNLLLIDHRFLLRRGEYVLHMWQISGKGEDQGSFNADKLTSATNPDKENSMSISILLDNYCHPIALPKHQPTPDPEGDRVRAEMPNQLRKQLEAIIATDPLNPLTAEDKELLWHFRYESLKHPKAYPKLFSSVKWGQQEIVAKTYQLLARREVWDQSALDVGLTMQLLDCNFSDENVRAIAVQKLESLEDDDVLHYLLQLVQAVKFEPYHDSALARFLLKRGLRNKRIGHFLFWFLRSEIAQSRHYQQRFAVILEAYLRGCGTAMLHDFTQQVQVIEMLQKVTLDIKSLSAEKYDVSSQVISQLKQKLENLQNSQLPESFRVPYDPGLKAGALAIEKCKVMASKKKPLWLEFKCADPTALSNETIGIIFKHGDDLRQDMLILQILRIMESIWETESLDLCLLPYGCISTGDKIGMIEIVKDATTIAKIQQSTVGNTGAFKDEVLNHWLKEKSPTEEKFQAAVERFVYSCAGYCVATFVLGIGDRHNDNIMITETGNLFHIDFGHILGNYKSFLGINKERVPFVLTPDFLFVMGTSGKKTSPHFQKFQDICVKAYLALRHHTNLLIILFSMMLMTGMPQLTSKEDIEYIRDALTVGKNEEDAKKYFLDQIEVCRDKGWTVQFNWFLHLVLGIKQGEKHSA
T3 sequence (P42338 whole entry): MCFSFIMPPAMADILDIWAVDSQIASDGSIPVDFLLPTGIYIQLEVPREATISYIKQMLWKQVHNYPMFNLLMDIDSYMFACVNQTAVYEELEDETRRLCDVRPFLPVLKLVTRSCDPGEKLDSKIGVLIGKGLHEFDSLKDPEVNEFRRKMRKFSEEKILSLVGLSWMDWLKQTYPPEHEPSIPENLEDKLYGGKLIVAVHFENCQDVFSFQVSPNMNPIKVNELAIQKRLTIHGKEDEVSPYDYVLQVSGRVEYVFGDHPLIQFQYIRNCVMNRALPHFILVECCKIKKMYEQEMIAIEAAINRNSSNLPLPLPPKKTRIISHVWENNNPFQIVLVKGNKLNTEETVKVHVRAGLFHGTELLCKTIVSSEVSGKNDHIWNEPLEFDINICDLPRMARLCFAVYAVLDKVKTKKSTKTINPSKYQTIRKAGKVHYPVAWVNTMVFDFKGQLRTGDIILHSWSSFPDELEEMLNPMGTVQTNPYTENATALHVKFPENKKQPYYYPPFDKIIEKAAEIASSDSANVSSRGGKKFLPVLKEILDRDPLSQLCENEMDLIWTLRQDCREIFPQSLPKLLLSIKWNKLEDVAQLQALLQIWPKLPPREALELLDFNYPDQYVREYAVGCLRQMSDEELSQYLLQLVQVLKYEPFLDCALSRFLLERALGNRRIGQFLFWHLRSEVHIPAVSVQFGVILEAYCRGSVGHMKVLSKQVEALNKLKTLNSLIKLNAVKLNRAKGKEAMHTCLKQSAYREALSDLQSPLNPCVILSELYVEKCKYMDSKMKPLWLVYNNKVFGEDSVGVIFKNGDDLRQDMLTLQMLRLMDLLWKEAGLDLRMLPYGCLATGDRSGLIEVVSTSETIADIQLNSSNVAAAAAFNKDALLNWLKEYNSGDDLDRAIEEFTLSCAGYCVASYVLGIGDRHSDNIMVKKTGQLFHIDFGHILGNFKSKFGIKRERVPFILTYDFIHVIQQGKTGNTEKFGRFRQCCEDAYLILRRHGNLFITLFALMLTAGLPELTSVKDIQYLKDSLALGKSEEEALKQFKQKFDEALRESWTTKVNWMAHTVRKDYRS
T3 sequence (P27986 whole entry partner): as the sequence (P27986 whole entry partner) above

IC50 [1] [nM]	IC50 [2] [nM]	Compound	other results
< 10000		Cc1cccc2cc(Cn3nc(I)c4c(N)ncnc43)n(C(C)C)c(=O)c12 [Compound 129]	
	< 10000	Cc1cccc2cc(Cn3nc(-c4ccc5nc(N)oc5c4)c4c(N)ncnc43)n(-c3ccccc3)c(=O)c12 [Compound 235]	IC50 [3]: < 100 nM; IC50 [4]: < 10000 nM
> 10000	> 10000	Cc1cccc2cc(C(C)Nc3nc(Cl)ncc3N)n(-c3ccccc3)c(=O)c12 (stereo not drawn) [Compound 322]	IC50 [3]: > 10000 nM; IC50 [4]: > 10000 nM

More lines, now with the values behind:

Compound	IC50 [1] [nM]	IC50 [2] [nM]	other results
Cc1cccc2cc(Cn3nc(-c4ccc(Cl)c(O)c4)c4c(N)ncnc43)n(C(C)C)c(=O)c12 [Compound 123]	< 100		
CC(=O)Nc1nc2ccc(-c3nn(Cc4cc5cccc(C)c5c(=O)n4-c4ccccc4C)c4ncnc(N)c34)cc2s1 [Compound 168]		< 10000	
CC[C@H](Nc1ncnc2[nH]cnc12)c1nc2cccc(F)c2c(=O)n1-c1ccccc1 [GS-1101, (S)-2-(1-(9H-purin-6-ylamino)propyl)-5-fluoro-3-phenylquinazolin-4(3H)-one, reference compound]			cytotoxicity, sensitivity [5]: resistant
COc1cccc2c1C(=O)c1c(O)c3c(c(O)c1C2=O)C[C@@](O)(C(=O)CO)C[C@@H]3O[C@H]1C[C@H](N)[C@H](O)[C@H](C)O1 [doxorubicin, reference compound]			percent inhibition of Loucy cells with dose [6]: different pattern

From US20160113932A1, “TREATMENT OF CANCERS USING PI3 KINASE ISOFORM MODULATORS” (INFINITY PHARMACEUTICALS, INC., priority 2013, published 2016)
